Measurements published in ChEMBL document CHEMBL4387772, “Design, synthesis and biological evaluation of hypolipidemic compounds based on BRD4 inhibitor RVX-208” (Bioorg Med Chem Lett, 2019).

Columns and labels:
[1] = system: Rattus norvegicus; assay: Antihyperlipidemic activity in po dosed Sprague-Dawley rat assessed as increase in HDL-C level administered twice daily for 1 week measured 2 hrs post-last dose by HPLC analysis relative to control; assay type: functional
[2] = system: Rattus norvegicus; assay: Antihyperlipidemic activity in po dosed Sprague-Dawley rat assessed as decrease in triglyceride level administered twice daily for 1 week measured 2 hrs post-last dose by GPO-PAP analysis relative to control; assay type: functional; set-up: scale not given: the % may be the effect or the level left
[3] = system: HepG2; assay: Up regulation of ApoA1 mRNA expression in human HepG2 cells at 100 uM by RT-PCR analysis relative to control; assay type: functional
[4] = biological target: Bromodomain-containing protein 4 (Homo sapiens, UniProt O60885); assay: Inhibition of BRD4 bromodomain 2 (unknown origin) incubated for 30 mins by ELISA
[5] = system: Rattus norvegicus; assay: Antihyperlipidemic activity in Sprague-Dawley rat assessed as increase in HDL-C level at 30 mg/kg, po administered twice daily for 1 week measured 2 hrs post-last dose by HPLC analysis relative to control; assay type: functional
[6] = system: Rattus norvegicus; assay: Antihyperlipidemic activity in Sprague-Dawley rat assessed as decrease in triglyceride level at 30 mg/kg, po administered twice daily for 1 week measured 2 hrs post-last dose by GPO-PAP analysis relative to control; assay type: functional; set-up: scale not given: the % may be the effect or the level left

| Structure (SMILES) | Activity [1] [%] | Activity [2] [%] | Activity [3] [%] | IC50 [4] [nM] | Activity [5] [%] | Activity [6] [%] |
| --- | --- | --- | --- | --- | --- | --- |
| CCOC(=O)C(C)(C)Oc1ccc(Cl)cc1 [CLOFIBRATE] | 5.92 | 41.35 |  |  |  |  |
| COc1cc(OC)c2c(=O)[nH]c(-c3ccc(C(=O)OCCO)cc3)nc2c1 |  |  | 25.3 | 71 | 16.51 | 11.94 |
| COc1cc(OC)c2c(=O)[nH]c(-c3cc(OC)c(OC(=O)C(C)(C)Oc4ccc(Cl)cc4)c(OC)c3)nc2c1 |  |  | 42.65 | 9.7 | 29.39 | 37.34 |
| COc1cc(OC)c2c(=O)[nH]c(-c3cc(C)c(OCCO)c(C)c3)nc2c1 [APABETALONE] | 23.84 | 3.13 | 38.91 |  |  |  |
| Cc1ccc(C)c(OCCCC(C)(C)C(=O)O)c1 [GEMFIBROZIL] | 7.03 | 39.66 |  |  |  |  |
| COc1cc(OC)c2c(=O)[nH]c(-c3cc(OC)c(OCCO)c(OC)c3)nc2c1 |  |  | 32.77 | 27.5 | 20.61 | 5.07 |
| COc1cc(OC)c2c(=O)[nH]c(-c3cc(C)c(OC(=O)C(C)(C)Oc4ccc(Cl)cc4)c(C)c3)nc2c1 |  |  | 38.09 | 39.6 | 22.5 | 34.85 |
| COc1cc(OC)c2c(=O)[nH]c(-c3cc(OC)c(OC(=O)CC(=O)OC(C)(C)C(=O)O)c(OC)c3)nc2c1 |  |  | 37.34 | > 100 | 21.58 | 50.36 |
| COc1cc(OC)c2c(=O)[nH]c(-c3cc(OC)c(OC(=O)C(C)(C)Br)c(OC)c3)nc2c1 |  |  | 44.82 | 20.9 | 32.74 | 41.63 |
| COc1cc(OC)c2c(=O)[nH]c(-c3cc(C)c(OC(=O)C(C)(C)Br)c(C)c3)nc2c1 |  |  | 34.85 | 53.8 | 19.33 | 36.21 |
| COc1cc(OC)c2c(=O)[nH]c(-c3cc(C)c(OC(=O)CC(=O)OC(C)(C)C(=O)O)c(C)c3)nc2c1 |  |  | 21.67 | > 100 | 16.46 | 48.59 |
